The term inhibition denotes the change of the read-out against control, counted positive when it falls.

The source made the active and inactive calls. How the calls were made is not given here.

Serine/threonine-protein phosphatase PP1-alpha catalytic subunit (Homo sapiens), sequence (P62136 whole entry, looked up): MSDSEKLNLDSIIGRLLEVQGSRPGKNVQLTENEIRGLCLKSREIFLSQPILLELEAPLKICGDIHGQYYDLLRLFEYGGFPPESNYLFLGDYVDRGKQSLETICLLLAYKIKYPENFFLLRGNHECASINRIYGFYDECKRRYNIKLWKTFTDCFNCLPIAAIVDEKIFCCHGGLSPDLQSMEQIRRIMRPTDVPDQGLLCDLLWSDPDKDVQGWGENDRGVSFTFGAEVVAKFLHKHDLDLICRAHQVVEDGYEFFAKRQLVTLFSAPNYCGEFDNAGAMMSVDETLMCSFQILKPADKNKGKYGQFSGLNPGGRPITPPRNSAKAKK

The experiment concerns the target Serine/threonine-protein phosphatase PP1-alpha catalytic subunit (Homo sapiens) (UniProt P62136). The experiment is described as follows: inhibition of PP1alpha catalytic activity – biochemical, OMFP substrate, fluorescence, late-stage follow-up (AID 652109). The following applies: PP1 dephosphorylation of OMFP, at 6.7 µM, hits give high values.
For the compound `COc1ccc(NC(=O)C2C3CCC(O3)C2C(=O)O)c(OC)c1` (centres undefined), the inhibition was 34.9%.

Turning to `CCOC(=O)c1cnc(-n2nc(C)cc2C)nc1NCCc1ccccc1`, the inhibition is 65.2%.

`Oc1ccccc1/C=N/Nc1cc(N2CCCC2)nc(N2CCCC2)n1`: the inhibition is 4.78% (inactive).

For the compound `COc1cnc(-c2ccccn2)nc1Sc1ccc(Cl)cc1`, the inhibition was 53.2%.

As for `Clc1ccc(-n2nnnc2-c2cnc(-c3ccccn3)nc2-c2cccs2)cc1`, the inhibition was 67.4%.

Turning to `CCOC(=O)c1nn(-c2ccc(C)cc2)c(=O)c2c(N)scc12`, the inhibition was 6.08% (inactive).

As for `Oc1ccc(/C=N/Nc2cc(N3CCOCC3)nc(N3CCOCC3)n2)c(O)c1`, the inhibition is 5.24% (inactive).

As for `COc1cnc(-c2ccccn2)nc1Sc1ccccc1Cl`, the inhibition is 68.5%.

Turning to `Cc1ccc(-n2nc(C(=O)O)cc2-c2ccc(Cl)cc2)cc1`, the inhibition was 56%.

As to `CC(C)(CS(=O)(=O)[O-])NC(=O)CC[N+](C)(C)CCO`, the inhibition is 49.4%.

Consider `COc1ccc(CN2C(=O)Cc3c2nc(N)c2c(N)nc(N4CCCCC4)c(C#N)c32)cc1`, for which the inhibition is 6.16% (inactive).

Consider `COc1ccc(C(=O)c2nccc3cc(OC)c(OC)cc23)cc1OC`, for which the inhibition was 0.984% (inactive).

In the case of `Cc1ccc(C(=O)NC2(O)C(=O)c3ccccc3C2=O)cc1C`, the inhibition was -0.875% (inactive).

Take `COc1cnc(-c2ccccn2)nc1Sc1cccc(Cl)c1`: the inhibition was 67.6%.

Take `O=C(O)c1cc(-c2ccc(Cl)c(Cl)c2)n(-c2ccccc2)n1`: the inhibition was 60.5%.

On to `COc1cnc(-c2ccccn2)nc1Sc1ccc(F)cc1`, for which the inhibition is 52.5%.

Consider `Cc1nnc(NC(=O)C2C3C=CC(O3)C2C(=O)O)s1` (centres undefined), for which the inhibition was 8.42% (inactive).

In the case of `O=C(O)c1cc(-c2ccc(Cl)cc2)n(-c2cccc(Cl)c2)n1`, the inhibition is 57.5%.

Consider `COc1ccc(Cl)cc1C(=O)Nc1cccc(-c2ccc3nncn3n2)c1`, for which the inhibition is 60.4%.

For the compound `O=c1[nH]c(Nc2ccccc2)cc2ccccc12`, the inhibition was 9.24% (inactive).

On to `COc1cnc(-c2ccccn2)nc1Sc1ccc(C)cc1`, for which the inhibition was 65.8%.

For `c1ccc(-c2nccc(-c3ccc(-n4cnc5ccccc54)cc3)n2)nc1`, the inhibition is 62.4%.

Consider `COc1ccccc1Sc1nc(-c2ccccn2)ncc1OC`, for which the inhibition is 65.9%.

Turning to `CCOC(=O)c1sc(N2C(=O)C(O)=C(C(=O)c3ccco3)C2c2cccc([N+](=O)[O-])c2)nc1C` (centres undefined), the inhibition is 32.7%.

With `CCOC(=O)c1cnc(-n2nc(C)cc2C)nc1NC1CCCCC1`, the inhibition is 57.6%.

With `N#Cc1c(-c2ccc(Cl)cc2)cc(-c2cccs2)nc1SCC(=O)O`, the inhibition is 46.6%.

On to `O=C(Nc1nc(-c2ccccn2)cs1)C1CC(=O)N(c2ccc3c(c2)OCCO3)C1` (centres undefined), for which the inhibition was 49.4%.

For the compound `O=C1CCCC2=C1C1(O)C(=O)c3ccccc3C1(O)O2` (centres undefined), the inhibition was 3.09% (inactive).

`CCCCn1c(NC(=O)c2ccco2)c(C(=O)OCC)c2nc3ccccc3nc21`: the inhibition was -4% (inactive).

As to `COc1ccc(OCCCC(=O)Nc2nc(-c3ccccn3)cs2)cc1`, the inhibition was 33.3%.

`CC(=O)C(C(C)=O)C1(O)C(=O)c2ccccc2C1=O`: the inhibition is 0.756% (inactive).

On to `O=C(O)c1cc(-c2ccc(Cl)c(Cl)c2)n(-c2ccc(F)cc2)n1`, for which the inhibition was 57.1%.

As to `CCOC(=O)c1cnc(-n2nc(C)cc2C)nc1NCc1ccccc1`, the inhibition was 58.3%.

As to `O=C1Nc2ccccc2N2CCCC12` (centres undefined), the inhibition was -0.206% (inactive).

As for `CCOC(=O)c1sc2nc3c(SCC(=O)O)cc(C(=O)c4cc(F)ccc4O)cn3c(=O)c2c1C`, the inhibition was 67.8%.

For the compound `COc1cc(Br)c(C(=O)c2nccc3cc(OC)c(OC)cc23)cc1OC`, the inhibition was -4.95% (inactive).

As for `Nc1cc2nsnc2cc1Br`, the inhibition was -4.44% (inactive).

Take `COc1cnc(-c2ccccn2)nc1Sc1ccccc1`: the inhibition was 60.7%.

As for `Oc1cccc(/C=N/Nc2cc(N3CCCC3)nc(N3CCCC3)n2)c1`, the inhibition was 23.5% (inactive).

Regarding `COc1ccc(NC(=S)Nc2ccc3nsnc3c2)cc1`, the inhibition was 2.7% (inactive).

As for `COc1cnc(-c2ccccn2)nc1Oc1cccc(Cl)c1`, the inhibition was 49.5%.

Turning to `Cc1[nH]n(-c2ccccc2)c(=O)c1C(c1ccc([N+](=O)[O-])cc1)c1c(C)[nH]n(-c2ccccc2)c1=O`, the inhibition is -0.696% (inactive).

In the case of `N#Cc1c(N2CCCC(O)C2)nc(N)c2c(N)nc3c(c12)CC(=O)N3C12CC3CC(CC(C3)C1)C2` (centres undefined), the inhibition was 8.91% (inactive).

`O=S(=O)(Cc1cc(NCc2ccccc2)nc(-c2ccccn2)n1)c1ccccc1`: the inhibition is 44.6%.

As for `CCOC(=O)C1=C(C)OC2(O)c3ccccc3C(=O)C12O` (centres undefined), the inhibition is 18.6% (inactive).

For the compound `CCOC(=O)c1cnc(-n2nc(C)cc2C)nc1NC(C)c1ccccc1` (centres undefined), the inhibition is 68.8%.

Consider `CN1CCN(C(c2ccccn2)c2cc(Cl)c3cccnc3c2O)CC1` (centres undefined), for which the inhibition was 74%.

With `CCn1c2ccccc2c2cc(NC(=O)COC(=O)c3ccc(NC(=O)CC#N)cc3)ccc21`, the inhibition was 47.2%.

Consider `Nc1nc(-c2ccccn2)nc(N)c1Cc1ccc(Cl)cc1Cl`, for which the inhibition was 65.9%.

Take `COc1cnc(-c2ccccn2)nc1Oc1cccc(C(F)(F)F)c1`: the inhibition is -4.5% (inactive).

In the case of `CCCCN(CC)c1nc(N)c2c(N)nc(OCC)cc2c1C#N`, the inhibition is 3.48% (inactive).

As for `COc1ccc(Sc2nc(-c3ccccn3)ncc2OC)cc1`, the inhibition was 71.2%.

As for `CCCN(CC1CC1)c1nc(N)c2c(N)nc(OC)cc2c1C#N`, the inhibition is 3.83% (inactive).

On to `COc1ccc2c(Cl)c(C(=O)N/N=C/c3ccc4c(c3)OCO4)sc2c1`, for which the inhibition was 23% (inactive).

Take `O=C(NC1(O)C(=O)c2ccccc2C1=O)c1ccc(C(F)(F)F)cc1`: the inhibition is 6.8% (inactive).

As to `CCOC(=O)c1cnc(-n2cc(C)cn2)nc1NCc1ccc2c(c1)OCO2`, the inhibition was 12.9% (inactive).

With `O=C(NC1(O)C(=O)c2ccccc2C1=O)c1c(Cl)cccc1Cl`, the inhibition is 0.361% (inactive).

Regarding `O=C(NC1(O)C(=O)c2ccccc2C1=O)c1ccccc1`, the inhibition was -2.88% (inactive).

As for `c1ccc(Nc2nc(-c3ccccn3)cs2)cc1`, the inhibition is 63.7%.

Take `Cc1ccc(C(=O)NNc2cc(N3CCCC3)nc(N3CCCC3)n2)cc1`: the inhibition was 3.05% (inactive).

Regarding `COc1ccc(Cn2c(N)c(C(=O)NCc3ccco3)c3nc4ccccc4nc32)cc1OC`, the inhibition is 3.29% (inactive).

On to `Cc1cc(C)c(S(=O)(=O)/N=C2\C=C(Sc3ncn[nH]3)C(=O)c3ccccc32)cc1C`, for which the inhibition is 5.9% (inactive).

With `CCOc1ccc(NC(=S)Nc2ccc3nsnc3c2)cc1`, the inhibition is 4.8% (inactive).

As for `O=C(O)C1C2CCC(O2)C1C(=O)NC1CCCCC1` (centres undefined), the inhibition is 25% (inactive).
